Experimental data as given in patent US20070275953A1 (priority 2003, published 2007).
Read-outs that look alike come from different tables or passages of the source.

Key:
Format in all cases: cell-based
[1] = system: HIV-1 mutant Ile108RT in TZM-bl cells; test: Anti-HIV assay on TZM-bl cells, Ile108RT mutant; details: read-out: EC50 Ile108RT TZM-bl
Excerpt: (§1) In order to introduce mutation(s) at the level of the pol gene coding for the RT in the pNL4-3 plasmid containing the complete viral genome (Adachi et al., 1986. J. Virol., Vol. 59 p 284-291) we used the “Quick change mutagenesis kit” (Stratagene). The following mutations were separately introduced in pNL4-3: L100I, K103N, V108I, Y181C, Y188C, and the double mutations K103N/V108I. These mutations were chosen because of the resistance that they confer to existing NNRTI. The production procedure of the mutant viral stocks is identical to the one described above.
(§2) Anti-HIV activity and cytotoxicity of the compounds were tested on the TZM-b1 cell line. The TZM-b1 cell line (Wei et al. 2002. Antimicrob. Agents Chemother. Vol. 46, p 1896-1905) was received from the NIH AIDS Research and Reference Reagent Program. These cells were cultured in complete DMEM medium supplemented with 10% fetal bovine serum (FBS), and 1% Penicillin/Streptomycin. Exponentially growing cells were trypsinized, centrifuged and split twice weekly at 5 10^4 cells/ml.
(§3) The anti-HIV assay with TZM-b1 cells is essentially the same as described above with P4 cells. The main difference between the two cell lines is that the TZM-b1 cells express at their surface both the CD4 and CCR5 proteins, acting as receptor and co-receptor for HIV entry, respectively (Wei et al. 2002. Antimicrob. Agents Chemother. Vol. 46, p 1896-1905). This feature makes the cells very sensitive to infection by the virus. The TMZ-b1 cells were infected with equal amount of cell-free virus, corresponding to 10 ng of HIV p24 antigen. This amount is ten times lower than the amount used to infect the P4 cells.

[2] = system: HIV-1 with WT (wild type) RT in MT4 cells; test: Anti-HIV assay on MT4 cell line, WT RT
Procedure: Wurzburg Jurkat T cells (subclone JR) were transfected with 10 μg of the circularly permuted infectious molecular clone HIVNL4-3 (Adachi et al., 1986. J. Virol, 59 (2), p 284-291). Two days later, co-cultivation with SupT1 cells (a human T-cell lymphoma cell line) was initiated to facilitate rapid production of progeny virions. Production of virus was measured by using the Innotest HIV Antigen mAb p24 kit (Innogenetics). At the peak of production cultures were harvested and filtered. The virus stocks were stored at −80° C. until used.
(§4) Anti-HIV activity of the compounds was tested on MT-4 cell line. The MT-4 cell line (Larder et al. 1989. Sciences, Vol. 243 p 1731) was received from the NIH AIDS Research and Reference Reagent Program. These cells were cultured in RPMI medium supplemented with 10% fetal bovine serum (FBS), and 1% Penicillin/Streptomycin. The cultures were split regularly to keep cells densities between 0.3 to 1.2 10^6 cells/ml.
(§5) The MT-4 cells rapidly die upon infection by HIV. In this system there is an inverse correlation between cells survival and the amount of viral replication.
(§6) Briefly, in the anti-HIV assay exponentially growing MT-4 cells were infected with HIV-1. 100 μl of infected MT-4 cells were seeded in 96-well plate at a concentration of 0.4 10^5 cells/ml, and 100 μl of the different drugs dilutions were added to the cells. After 4 days of incubation at 37° C., 5% CO2, cells survival was measured using MTS (3-(4-5-dimethylthiazol-2-yl)-5-(−(3-carboxymethoxyphenyl)-2-(4-sulfophenyl)-2H-tetrazolium) assays. This compound is reduced by viable cells in a colored soluble formazan salt.
(§7) The absorbance was measured on a Benchmark™ Microplate Reader (Biorad) (λ=490 nm) and compared with 12 cell control replicates (nor virus nor drug added) and 12 virus control wells (no drug added). Each assay was performed a minimum of three times. The 50% effective concentration (EC50) was calculated from each dose response curve using the CurveExpert 1.3 software.

[3] = system: HIV-1 mutant Cys181RT in MT4 cells; test: Anti-HIV assay on MT4 cells, Cys181RT mutant
Excerpt: as §1, §4, §5, §6, §7

[4] = system: HIV-1 mutant Ile100RT in TZM-bl cells; test: Anti-HIV assay on TZM-bl cells, Ile100RT mutant; details: read-out: EC50 Ile100RT TZM-bl
Excerpt: as §1, §2, §3

[5] = system: HIV-1 mutant Asn103RT in TZM-bl cells; test: Anti-HIV assay on TZM-bl cells, Asn103RT mutant; details: read-out: EC50 Asn103RT TZM-bl
Excerpt: as §1, §2, §3

[6] = system: HIV-1 mutant Asn103/Ile108RT in P4 cells; test: Anti-HIV assay on P4 cells, Asn103/Ile108RT double mutant
Excerpt: as §1
Anti-HIV activity and cytotoxicity of the compounds were tested on a P4 cell line. The P4 cell line (Clavel & Charneau, 1994. J. Virol., Vol. 68 p 1179-1185) was provided by Dr. François Clavel (Unité de recherche antivirale de l'hôpital Xavier Bichat Paris: Inserm). The P4 cells were cultured in complete DMEM medium supplemented with 10% fetal bovine serum (FBS), 0.5% of Penicillin/Streptomycin and G418 at 0.5 mg/ml. Exponentially growing cells were trypsinized, centrifuged and split twice weekly at 5.10^4 cells/ml.
The P4 cells are HIV-infectible Hela-CD4 cells that carry the bacterial lacZ gene under the control of the HIV-1 long terminal repeat (LTR). In this cell line, transcription of the LacZ gene is driven by the HIV-1 LTR. As such, the cytoplasmic accumulation of β-galactosidase is strictly dependent on the presence of the HIV transactivator Tat produced during the intracellular viral replication (Clavel & Charneau, 1994. J. Virol., Vol. 68, p. 1179-1185). In other words, in this system, the expression level of the β-galactosidase gene is proportional to the viral replication.
Briefly, in the anti-HIV assay 100 Ål of P4 cells were plated in 96-well plate at a concentration of 0.4 10^5 cells/ml and incubated at 37° C., 5% CO2. After 48 h, the medium was removed and 100 Ål of the different drugs dilutions were added to the cells. Four hours after the addition of the drugs all cells were infected with equal amount of cell-free virus, corresponding to 100 ng of HIV p24 antigen. After 48 h of incubation at 37° C., 5% CO2, β-galactosidase activity was measured using chlorophenol red-β-D-galactopyranoside assays.
as §7, with “(λ=570” for “(λ=490”, “(no” for “(nor”, “or” for “nor”, “(Ec50)” for “(EC50)”, “software. As Nevirapine activity corresponds to its published values (10-100 nM), the data are consistent with other measures of viral replication.” for “software.”

[7] = Human immunodeficiency virus 1, MT4, read-out: EC50 Cys181RT MT4
[8] = Human immunodeficiency virus 1, TZM-bl
[9] = Human immunodeficiency virus 1, read-out: EC50 Asn103/Ile108RT F4
[10] = column head prints F4, double mutant Asn103/Ile108RT, read-out: EC50 Asn103/Ile108RT F4

| SMILES | EC50 ([1]; TZM-bl, mutant Ile108RT) [nM] | EC50 ([2]; Human immunodeficiency virus 1) [nM] | EC50 [3, 7] [nM] | EC50 [4, 8] [nM] | EC50 [5, 8] [nM] | EC50 [1, 8] [nM] | EC50 [6, 9] [nM] | EC50 Cys181RT MT4 ([3]; MT4, mutant Cys181RT) | EC50 ([4]; TZM-bl, mutant Ile100RT) [nM] | EC50 [6, 10] [nM] | EC50 [2] [nM] | EC50 ([5]; TZM-bl, mutant Asn103RT) [nM] | EC50 ([3]; MT4, mutant Cys181RT, read-out: EC50 Cys181RT MT4) [nM] |
| --- | --- | --- | --- | --- | --- | --- | --- | --- | --- | --- | --- | --- | --- |
| CCOC(=O)c1c(OC2CC(C)CC(C)C2)c(CC)c(C)[nH]c1=O (single isomer, unassigned) [Z37inv] | 1090 |  |  |  |  |  |  |  |  |  |  |  |  |
| O=C1Nc2ccc(Cl)cc2[C@@](C#CC2CC2)(C(F)(F)F)O1 [Efavirenz, reference compound] |  | < 1 | < 1 | 17 | 35 | < 6 | 9 |  |  |  |  |  |  |
| Cc1ccnc2c1NC(=O)c1cccnc1N2C1CC1 [Nevirapine, reference compound] |  | 575 |  | 50 | 2100 | 91 | 6250 | Inactive |  |  |  |  |  |
| CCc1c(C)[nH]c(=O)c(CO)c1OC1CC(C)CC(C)C1 (stereo not shown) [Z45inv] |  |  |  |  |  |  |  |  | 382 | 19200 |  |  |  |
| CCc1c(C)[nH]c(=O)c([N+](=O)[O-])c1OC1CC(C)CC(C)C1 (stereo not shown) [Z91inv, 3-nitro-5-ethyl-6-methyl-4-[(3,5-dimethylcyclohexyl)oxy]pyridine-2(1H)-one] |  | < 1 | 2440 | 2 | 355 | < 1 | 180 |  |  |  |  |  |  |
| CCc1c(C)[nH]c(=O)c(CSC(C)=O)c1OC1CC(C)CC(C)C1 (stereo not shown) [Z114] | 12 |  |  |  |  |  |  | Inactive | 77 | 1930 | 136 | 584 |  |
| CCc1c(C)[nH]c(=O)c(N(C)C)c1OC1CC(C)CC(C)C1 (stereo not shown) [Z150, 3-(dimethylamino)-5-ethyl-6-methyl-4-[(3,5-dimethylcyclohexyl)oxy]pyridine-2(1H)-one] |  | < 1 | 320 | 20 | 11 | 4 | 27 |  |  |  |  |  |  |
| CCc1c(C)[nH]c(=O)c(CN=[N+]=[N-])c1OC1CC(C)CC(C)C1 (stereo not shown) [Z153] | 1 |  |  |  |  |  |  |  | 29 | 70 |  | 42 | 780 |
| CCc1c(C)[nH]c(=O)c(C)c1OC1CC(C)CC(C)C1 (stereo not shown) [Z154] | 14 |  |  |  |  |  |  |  | 40 | 88 | < 1 | 29 |  |
